Experimental data reported in paper PMC7447632, “Highly functionalized β-lactams and 2-ketopiperazines as TRPM8 antagonists with antiallodynic activity” (Scientific Reports, 2020).

Key:
hTRPV1 channels = biological target: T1, hTRPV1 channels (Homo sapiens, UniProt Q8NER1); test: Ca2+ microfluorometry in HEK cells expressing hTRPV1 (capsaicin); assay type: cell-based; conditions: 1 µM capsaicin; for TRPV1 Blockade (%) 5 µM: 5 µM compound; for TRPV1 Blockade (%) 50 µM: 50 µM compound
T1 construct: expressed in transfected cells; host or cells: HEK (stably transfected)
T1 sequence (Q8NER1 whole entry): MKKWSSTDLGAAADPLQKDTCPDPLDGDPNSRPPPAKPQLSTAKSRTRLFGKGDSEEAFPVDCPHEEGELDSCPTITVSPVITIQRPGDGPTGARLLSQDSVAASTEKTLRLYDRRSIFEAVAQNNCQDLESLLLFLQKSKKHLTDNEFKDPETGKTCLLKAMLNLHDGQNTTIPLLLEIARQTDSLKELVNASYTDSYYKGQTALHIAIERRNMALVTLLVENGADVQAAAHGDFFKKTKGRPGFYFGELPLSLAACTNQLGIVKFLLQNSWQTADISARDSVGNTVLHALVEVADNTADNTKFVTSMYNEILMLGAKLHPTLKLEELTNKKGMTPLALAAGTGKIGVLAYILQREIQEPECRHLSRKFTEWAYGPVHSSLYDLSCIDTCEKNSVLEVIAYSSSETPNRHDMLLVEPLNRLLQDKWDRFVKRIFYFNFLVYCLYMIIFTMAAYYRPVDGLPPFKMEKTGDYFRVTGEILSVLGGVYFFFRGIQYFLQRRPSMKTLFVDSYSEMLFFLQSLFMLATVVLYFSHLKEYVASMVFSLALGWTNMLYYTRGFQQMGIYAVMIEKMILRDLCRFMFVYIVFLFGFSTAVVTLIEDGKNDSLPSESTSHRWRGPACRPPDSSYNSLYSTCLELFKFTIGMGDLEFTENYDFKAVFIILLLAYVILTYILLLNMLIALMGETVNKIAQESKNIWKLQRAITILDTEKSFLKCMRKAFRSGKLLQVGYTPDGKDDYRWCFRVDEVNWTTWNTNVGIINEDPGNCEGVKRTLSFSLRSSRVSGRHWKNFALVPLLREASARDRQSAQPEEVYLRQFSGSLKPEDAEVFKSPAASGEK
Procedure: β-Lactam and 2-ketopiperazine derivatives were also assayed for their activity in cell expressing hTRPV1 channels. No significant antagonist activity was measured for any derivatives within both chemotypes (Supplementary Tables S1, S2, and Fig. S3), indicating their selectivity for TRPM8 channels.
Human embryonic kidney cell line (HEK) stably transfected with rTRPM8 or h-TRPV1 were used as previously described. Briefly, cells were seeded in 96-well plates at a cell density of 30,000 cells 2 days before treatment. Buffer used was HBBS (in mM): 138 NaCl, 5.33 KCl, 1.26 CaCl2, 0.5 MgCl-6H2O, 0.4 MgSO4-7H2O, 4 NaHCO3 0.44 KH2PO4, 0.3 Na2HPO4, pH 7.4. The day of treatment the medium was replaced with 100 µL of the dye loading solution Fluo-4 NW supplemented with probenecid 2.5 mM. After incubation, plates were transferred to a fluorescence plate reader (Polastar BMG). In the experimental protocol, the baseline fluorescence was recorded ([…]) for 3 cycles. After, vehicle, compound at different concentrations and the corresponding antagonist, 10 µM AMTB for TRPM8 or 10 µM Ruthenium Red for TRPV1 were added to the well. Fluorescence intensity was recorded during 7 cycles more. Finally, the agonist 100 µM menthol for TRPM8 or 1 µM capsaicin for TRPV1 was added and fluorescence intensity was recorded during 10 cycles more.
Table S1. Activity at hTRPV1 of β–lactams derived from phenylalaninol conjugates
Compd. Isomer Isomer TRPV1 Blockade (%)
Table S2. Activity at hTRPV1 of 2-ketopiperazines derived from phenylalaninol

[1] = system: A549 (lung carcinoma, NSCLC); test: SRB cytotoxicity assay, A549; assay type: cell-based; conditions: 72 h, SRB; for TGI A549: total growth inhibition; for TGI A549 / CC50: unit inferred; for GI50 / CC50: Homo sapiens, A549; for CC50: read-out: LC50 A549
Procedure: Human tumor cell lines used in this study were purchased from the ATCC. A-549 (CCL-185), lung carcinoma; HT-29 (HTB-38), colorectal adenocarcinoma; MDA-MB-231 (HTB-26), breast adenocarcinoma; PSN1, pancreas adenocarcinoma.
All cell lines were maintained in DMEM (Dulbecco’s Modified Eagle's Medium) culture medium supplemented with 10% FBS (Fetal Bovine Serum), 100 Units/mL penicillin/streptomycin at 37 °C, 5% CO2 and 95% humidity.
Triplicate cultures were incubated for 72 h in the presence or absence of test compounds in dose–response curves (10 concentrations, typically ranging from 10 to 0.0026 µg/mL). A colorimetric assay using sulforhodamine B (SRB) was adapted for quantitative measurement of cell growth and cytotoxicity. A more detailed information on this assay is provides in the supplementary information. GI50 is the compound concentration that produces 50% inhibition on cell growth as compared to control cells.
In vitro bioassays for the detection of antitumor activity
The aim of this assay is to evaluate the in vitro cytostatic (ability to delay or arrest tumor cell growth) or cytotoxic (ability to kill tumor cells) activity of the samples […]
Name Nº ATCC Species Tissue Characteristics
A549 CCL-185 human lung lung carcinoma (NSCLC)
HT29 HTB-38 human colon colorectal adenocarcinoma
MDA-MB-231 HTB-26 human breast breast adenocarcinoma
PSN1 CRM-CRL-3211 human pancreas pancreas adenocarcinoma […]
A colorimetric assay, using Sulforhodamine B (SRB) reaction has been adapted to provide a quantitative measurement of cell growth and viability (following the technique described by Skehan et al. J. Natl. Cancer Inst. 1990, 82, 1107-1112 […]
This form of assay employs 96-well cell culture microplates following the standards of the American National Standards Institute and the Society for Laboratory […]
used in this study were obtained from the American Type Culture Collection (ATCC) and derive from different types of human cancer.
A549, HT29, MDA-MB-231 and PSN1 cells were maintained in Dulbecco’s
Modified Eagle Medium (DMEM) supplemented with 10% Fetal Bovine Serum (FBS), 2mM L-glutamine, 100 U/mL penicillin, and 100 U/mL streptomycin at 37 °C, 5% CO2 and 98% humidity. For the experiments, cells were harvested from subconfluent cultures using trypsinization and resuspended in fresh medium before counting and […]
A549, HT29, MDA-MB-231 and PSN1 cells were seeded in 96 well microtiter plates, at 5000 cells per well in aliquots of 150 µL, and allowed to attach to the plate surface for 18 hours (overnight) in drug free medium. After that, one control (untreated) plate of each cell line was fixed (as described below) and used for time zero reference value. Culture plates were then treated with test compounds (50 µL aliquots of 4X stock […]
solutions in complete culture medium plus 4% DMSO) using ten 2/5 serial dilutions (concentrations ranging from 10 to 0.003 µg/mL) and triplicate cultures (1% final concentration in DMSO). After 72 hours treatment, the antitumor effect was measured by using the SRB methodology: Briefly, cells were washed twice with PBS, fixed for 15 min in 1% glutaraldehyde solution at room temperature, rinsed twice in PBS, and stained in 0.4% SRB solution for 30 min at room temperature. Cells were then rinsed several times with 1% acetic acid solution and air-dried at room temperature. SRB was then extracted in 10 mM trizma base solution and the absorbance measured in an automated spectrophotometric plate reader at 490 nm.
Effects on cell growth and survival were estimated by applying the NCI algorithm (Boyd MR and Paull KD. Drug Dev. Res. 1995, 34, 91-109, DOI:10.1002/ddr.430340203). The values obtained in triplicate cultures were fitted by nonlinear regression to a four-parameters logistic curve by nonlinear regression analysis. . Using the absorbance measurements [time zero, (Tz), control growth, (C), and test growth in the presence of drug at the ten concentration levels (Ti)], the […]

C[C@@H]1C(=O)N(C[C@H](Cc2ccccc2)NC(=O)OCc2ccccc2)[C@]1(Cc1ccccc1)C(=O)OCc1ccccc1 [Compound 24a, 4S-Benzyl-4-benzyloxycarbonyl-3S-methyl-1-[(2′S-benzyloxycarbonylamino-3′-phenyl)prop-1′-yl]-2-oxoazetidine]
TRPV1 Blockade (%) 5 µM (hTRPV1 channels): 9.7±1.1%
TRPV1 Blockade (%) 50 µM (hTRPV1 channels): 11.8±3.2%
TGI A549 [1]: > 17.3 µM
GI50 [1]: 3.29 µM
CC50 [1]: > 17.3 µM

C[C@@H]1C(=O)N(C[C@@H](Cc2ccccc2)NC(=O)OCc2ccccc2)[C@]1(Cc1ccccc1)C(=O)OCc1ccccc1 [Compound 29a, 4S-Benzyl-4-benzyloxycarbonyl-3S-methyl-1-[(2′R-benzyloxycarbonylamino-3′-phenyl)prop-1′-yl]-2-oxoazetidine]
TRPV1 Blockade (%) 5 µM (hTRPV1 channels): 8.2±2.1%
TRPV1 Blockade (%) 50 µM (hTRPV1 channels): 16.2±4.7%
TGI A549 [1]: > 17.3 µM
GI50 [1]: 5.9 µM
CC50 [1]: > 17.3 µM
